Results on two compounds are retold here after patent US9408795B2, “Method for enhancing the growth and fullness of hair” (Avon Products, Inc., priority 2011, dated 2016).

The assay relates to FGFR1 gene expression. The experiment in a line: PCR to assess FGFR1 gene expression in human dermal papilla cells. Type of assay: cell-based. To be noted: 48-hour incubation, normalized to 18S, vs DMSO control. The procedure: Method: PCR to assess FGFR1 gene expression in human dermal papilla cells, following administration of L-4-Thiazolylalanine, Pouzolzia petandra, or cis-6-nonenol.
Human dermal papilla cells (Cell Applications, CA) were plated at 5000 cells/cm^2 in collagen-coated 6-well culture plates in the Papilla Cell Growth Medium (Cell Application, CA) overnight in humidified atmosphere of 5% CO2 at 37° C. When dermal papilla cells reached 80-90% confluence, the medium was replaced with fresh medium and the compounds (L-4-Thiazolylalanine, Pouzolzia petandra, or cis-6-nonenol) dissolved in DMSO were added to the wells in duplicate at a concentration of 0.002% or 0.001%. DMSO was used a vehicle control. Following 48-hour incubation, the medium was removed and the cells were collected in the Lysis/Binding Solution (Ambion, Tex.) after being washed with cold PBS.
Total RNA was extracted from dermal papilla cells by using the RNAqueous kit (Ambion, Tex.) according to the manufacture's instruction. RNA was quantified on the Nanodrop ND-1000 Spectrophotometer (NanoDrop Technologies, DE) and the confirmation of integrity was determined using the Agilent Bioanalyzer before RNA was further processed for cDNA preparation. […]
RNA abundance of FGFR1 was measured using quantitative Real-Time PCR. […] All samples were run in triplicate and normalized to 18S and expressed as a percentage of the control.

On to `N[C@@H](Cc1cscn1)C(=O)O` [L-4-Thiazolylalanine, 4-L-thiazolylalanine], for which the “Percent Inhibition of FGFR1 Expression” value (0.001% (w/v)) was found to be 59.13%.

As for `CC/C=C\CCCCCO` [cis-6-nonenol], the “Percent Inhibition of FGFR1 Expression” value (0.002% (w/v)) worked out at 28.25%.
